Assay results from ChEMBL document CHEMBL4665715, “Thienochromene derivatives inhibit pSTAT1 and pSTAT5 signaling induced by cytokines” (Bioorg Med Chem Lett, 2020).
Calls of active or inactive are those of the source. The rule behind the calls is not given here.

Key:
Assay type in all cases: tissue-based
Janus Kinase (JAK) [1] = target: T1, Janus Kinase (JAK) (Homo sapiens, UniProt P52333+P23458+O60674+P29597); assay: Inhibition of JAK in human PBMC assessed as inhibition of IFNalpha-induced STAT1 phosphorylation at 150 uM preincubated for 30 mins followed by addition […] stimulation and measured after 30 mins by ELISA
Janus Kinase (JAK) [2] = target: T1, Janus Kinase (JAK); assay: Inhibition of JAK in human PBMC assessed as inhibition of GM-CSF-induced STAT5 phosphorylation preincubated for 30 mins followed by addition […] stimulation and measured after 30 mins by ELISA
Janus Kinase (JAK) [3] = target: T1, Janus Kinase (JAK); assay: Inhibition of JAK in human PBMC assessed as inhibition of IL2-induced STAT5 phosphorylation preincubated for 30 mins followed by addition IL2 stimulation and measured after 30 mins by ELISA
Janus Kinase (JAK) [4] = target: T1, Janus Kinase (JAK); assay: Inhibition of JAK in human PBMC assessed as inhibition of GM-CSF-induced STAT5 phosphorylation at 150 uM preincubated for 30 mins followed by addition […] stimulation and measured after 30 mins by ELISA
Janus Kinase (JAK) [5] = target: T1, Janus Kinase (JAK); assay: Inhibition of JAK in human PBMC assessed as inhibition of IL2-induced STAT5 phosphorylation at 150 uM preincubated for 30 mins followed by addition IL2 stimulation and measured after 30 mins by ELISA
Janus Kinase (JAK) [6] = target: T1, Janus Kinase (JAK); assay: Inhibition of JAK in human PBMC assessed as inhibition of IFNalpha-induced STAT1 phosphorylation preincubated for 30 mins followed by addition […] stimulation and measured after 30 mins by ELISA

## CCOC(=O)c1cc2c(=O)oc3cc(O)ccc3c2s1
Janus Kinase (JAK) [1]
  inhibition: Active
Janus Kinase (JAK) [2]
  IC50: 5 µM
Janus Kinase (JAK) [3]
  IC50: 12.1 µM
Janus Kinase (JAK) [4]
  inhibition: Active
Janus Kinase (JAK) [5]
  inhibition: Active
Janus Kinase (JAK) [6]
  IC50: 11.9 µM
